Measurements taken from patent US9708314B2, “Heterocyclic amide compound” (NISSAN CHEMICAL INDUSTRIES, LTD., priority 2013, dated 2017).

Legend:
Type in all cases: in vivo
Lolium multiflorum Lam. = experiment: Test Example 4: herbicidal effect by application to foliage (diluvial soil, plastic box); settings: 320 g/ha; for herbicidal effect, K (Lolium multiflorum Lam.): application to foliage
In short: (§1)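 Scores run from 0 (herbicidal ratio ≤5%) to 5 (≥90%, almost fully withered) and were assessed three weeks after foliar spraying. Seedlings had been raised for 14 days at 25-30° C in sterilized diluvial soil before treatment, with the emulsion diluted in water to the stated g/ha dose.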

Abutilon theophrasti = experiment: as above; settings: 320 g/ha; for herbicidal effect, M (Abutilon theophrasti): application to foliage
In short: as §1

Setaria viridis = experiment: as above; settings: 320 g/ha; for herbicidal effect, G (Setaria viridis): application to foliage
In short: as §1

[1] = system: Echinochloa crus-galli var. crus-galli; experiment: as above; settings: 320 g/ha; for herbicidal effect, H (Echinochloa crus-galli var. crus-galli): application to foliage
In short: as §1

Alopecurus myosuroides = experiment: as above; settings: 320 g/ha; for herbicidal effect, J (Alopecurus myosuroides): application to foliage
In short: as §1

Veronica persica = experiment: as above; settings: 320 g/ha; for herbicidal effect, R (Veronica persica): application to foliage
In short: as §1

Stellaria media = experiment: as above; settings: 320 g/ha; for herbicidal effect, P (Stellaria media): application to foliage
In short: as §1

Amaranthus retroflexus = experiment: as above; settings: 320 g/ha; for herbicidal effect, N (Amaranthus retroflexus): application to foliage
In short: as §1

Chenopodium album = experiment: as above; settings: 320 g/ha
In short: as §1

Avena fatua = experiment: as above; settings: 320 g/ha; for herbicidal effect, I (Avena fatua): application to foliage
In short: as §1

Galium spurium = experiment: as above; settings: 320 g/ha; for herbicidal effect, Q (Galium spurium): application to foliage
In short: as §1

Apera spica-venti. = experiment: as above; settings: 320 g/ha; for herbicidal effect, L (Apera spica-venti.): application to foliage
In short: as §1

Digitaria ciliaris = experiment: as above; settings: 320 g/ha; for herbicidal effect, F (Digitaria ciliaris): application to foliage
In short: as §1

[2] = system: Echinochloa crus-galli var. crus-galli; experiment: Test Example 3: herbicidal effect by application to foliage (Wagner pot, water depth 0.1-0.5 cm); settings: Nineteenth Table; application to foliage; application herbicide amount 320 g/ha
In short: (§2)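 A small sprayer delivered the diluted emulsion uniformly to foliage at the chosen rate in g/ha, 14 days after sowing in Wagner pots held at 25–30 °C. Outcome: 0–5 herbicidal-ratio score read three weeks post-treatment.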

Leptochloa chinensis = experiment: as above; settings: Nineteenth Table; application to foliage; application herbicide amount 320 g/ha
In short: as §2

Cyperus difformis = experiment: as above; settings: Nineteenth Table; application to foliage; application herbicide amount 320 g/ha
In short: as §2

[3] = system: directly sowed Oryza sativa; experiment: Test Example 4: effect on crop by application to foliage (diluvial soil, plastic box); settings: 320 g/ha; for effect on crop, d (directly sowed Oryza sativa): application to foliage
In short: as §1

[4] = system: Beta vulgaris ssp. vulgaris; experiment: as above; settings: 320 g/ha; for effect on crop, f (Beta vulgaris ssp. vulgaris): application to foliage
In short: as §1

Triticum aestivum = experiment: as above; settings: 320 g/ha; for effect on crop, e (Triticum aestivum): application to foliage
In short: as §1

Glycine max = experiment: as above; settings: 320 g/ha; for effect on crop, c (Glycine max): application to foliage
In short: as §1

Zea mays = experiment: as above; settings: 320 g/ha
In short: as §1

Brassica campestris L. = experiment: as above; settings: 320 g/ha; for effect on crop, g (Brassica campestris L.): application to foliage
In short: as §1

Row | Compound | H (herbicidal effect grade) [2] | D (herbicidal effect grade) (Leptochloa chinensis) | E (herbicidal effect grade) (Cyperus difformis) | herbicidal effect, K (Lolium multiflorum Lam.) (Lolium multiflorum Lam.) | herbicidal effect, M (Abutilon theophrasti) (Abutilon theophrasti) | herbicidal effect, G (Setaria viridis) (Setaria viridis) | herbicidal effect, H (Echinochloa crus-galli var. crus-galli) [1] | herbicidal effect, J (Alopecurus myosuroides) (Alopecurus myosuroides) | herbicidal effect, R (Veronica persica) (Veronica persica) | herbicidal effect, P (Stellaria media) (Stellaria media) | herbicidal effect, N (Amaranthus retroflexus) (Amaranthus retroflexus) | herbicidal effect, I (Avena fatua) (Avena fatua) | herbicidal effect, Q (Galium spurium) (Galium spurium) | herbicidal effect, L (Apera spica-venti.) (Apera spica-venti.) | herbicidal effect, F (Digitaria ciliaris) (Digitaria ciliaris) | effect on crop, d (directly sowed Oryza sativa) [3] | effect on crop, f (Beta vulgaris ssp. vulgaris) [4] | effect on crop, e (Triticum aestivum) (Triticum aestivum) | effect on crop, c (Glycine max) (Glycine max) | effect on crop, g (Brassica campestris L.) (Brassica campestris L.) | other results
1 | Cn1nnnc1NC(=O)c1ccc(C(F)(F)F)n2c(S(C)(=O)=O)nnc12 [2-037] | 5 (Herbicidal ratio of 90% or more (almost completely withered)) | 5 (Herbicidal ratio of 90% or more (almost completely withered)) | 5 (Herbicidal ratio of 90% or more (almost completely withered)) |  |  |  |  |  |  |  |  |  |  |  |  |  |  |  |  |  | K (Lolium multiflorum Lam.) herbicidal effect grade (Lolium multiflorum Lam.; foliage application): 5 (Herbicidal ratio of 90% or more (almost completely withered)); M (Abutilon theophrasti) herbicidal effect grade (Abutilon theophrasti; foliage application): 5 (Herbicidal ratio of 90% or more (almost completely withered)); G (Setaria viridis) herbicidal effect grade (Setaria viridis; foliage application): 5 (Herbicidal ratio of 90% or more (almost completely withered)); H (Echinochloa crus-galli var. crus-galli) herbicidal effect grade ([1]; foliage application): 5 (Herbicidal ratio of 90% or more (almost completely withered)); J (Alopecurus myosuroides) herbicidal effect grade (Alopecurus myosuroides; foliage application): 5 (Herbicidal ratio of 90% or more (almost completely withered)); R (Veronica persica) herbicidal effect grade (Veronica persica; foliage application): 5 (Herbicidal ratio of 90% or more (almost completely withered)); P (Stellaria media) herbicidal effect grade (Stellaria media; foliage application): 5 (Herbicidal ratio of 90% or more (almost completely withered)); N (Amaranthus retroflexus) herbicidal effect grade (Amaranthus retroflexus; foliage application): 5 (Herbicidal ratio of 90% or more (almost completely withered)); O (Chenopodium album) herbicidal effect grade (Chenopodium album; foliage application): 5 (Herbicidal ratio of 90% or more (almost completely withered)); I (Avena fatua) herbicidal effect grade (Avena fatua; foliage application): 5 (Herbicidal ratio of 90% or more (almost completely withered)); Q (Galium spurium) herbicidal effect grade (Galium spurium; foliage application): 5 (Herbicidal ratio of 90% or more (almost completely withered)); L (Apera spica-venti.) herbicidal effect grade (Apera spica-venti.; foliage application): 5 (Herbicidal ratio of 90% or more (almost completely withered)); F (Digitaria ciliaris) herbicidal effect grade (Digitaria ciliaris; foliage application): 5 (Herbicidal ratio of 90% or more (almost completely withered)); d (directly sowed Oryza sativa) effect on crop grade ([3]; foliage application): 4 (Herbicidal ratio of 70% or more and less than 90%); f (Beta vulgaris ssp. vulgaris) effect on crop grade ([4]; foliage application): 5 (Herbicidal ratio of 90% or more (almost completely withered)); e (Triticum aestivum) effect on crop grade (Triticum aestivum; foliage application): 5 (Herbicidal ratio of 90% or more (almost completely withered)); c (Glycine max) effect on crop grade (Glycine max; foliage application): 5 (Herbicidal ratio of 90% or more (almost completely withered)); b (Zea mays) effect on crop grade (Zea mays; foliage application): 5 (Herbicidal ratio of 90% or more (almost completely withered)); g (Brassica campestris L.) effect on crop grade (Brassica campestris L.; foliage application): 5 (Herbicidal ratio of 90% or more (almost completely withered))
2 | CCCn1nnnc1NC(=O)c1ccc(C(F)(F)F)n2c(C(C)C)nnc12 [2-090] | 5 (Herbicidal ratio of 90% or more (almost completely withered)) | 4 (Herbicidal ratio of 70% or more and less than 90%) | 5 (Herbicidal ratio of 90% or more (almost completely withered)) | 4 (Herbicidal ratio of 70% or more and less than 90%) | 3 (Herbicidal ratio of 40% or more and less than 70%) | 4 (Herbicidal ratio of 70% or more and less than 90%) | 5 (Herbicidal ratio of 90% or more (almost completely withered)) | 3 (Herbicidal ratio of 40% or more and less than 70%) | 3 (Herbicidal ratio of 40% or more and less than 70%) | 5 (Herbicidal ratio of 90% or more (almost completely withered)) | 4 (Herbicidal ratio of 70% or more and less than 90%) | 4 (Herbicidal ratio of 70% or more and less than 90%) | 4 (Herbicidal ratio of 70% or more and less than 90%) | 4 (Herbicidal ratio of 70% or more and less than 90%) | 5 (Herbicidal ratio of 90% or more (almost completely withered)) | 3 (Herbicidal ratio of 40% or more and less than 70%) | 5 (Herbicidal ratio of 90% or more (almost completely withered)) | 3 (Herbicidal ratio of 40% or more and less than 70%) | 1 (Herbicidal ratio of 5% or more and less than 20%) | 4 (Herbicidal ratio of 70% or more and less than 90%) | effect on crop, b (Zea mays) (Zea mays; application to foliage): 3 (Herbicidal ratio of 40% or more and less than 70%)
3 | CCN(CC)c1nnc2c(C(=O)Nc3nnnn3C)ccc(C(F)(F)F)n12 [2-089] | 4 (Herbicidal ratio of 70% or more and less than 90%) | 5 (Herbicidal ratio of 90% or more (almost completely withered)) | 4 (Herbicidal ratio of 70% or more and less than 90%) | 1 (Herbicidal ratio of 5% or more and less than 20%) | 4 (Herbicidal ratio of 70% or more and less than 90%) | 4 (Herbicidal ratio of 70% or more and less than 90%) | 4 (Herbicidal ratio of 70% or more and less than 90%) | 2 (Herbicidal ratio of 20% or more and less than 40%) | 5 (Herbicidal ratio of 90% or more (almost completely withered)) | 5 (Herbicidal ratio of 90% or more (almost completely withered)) | 4 (Herbicidal ratio of 70% or more and less than 90%) | 1 (Herbicidal ratio of 5% or more and less than 20%) | 3 (Herbicidal ratio of 40% or more and less than 70%) | 4 (Herbicidal ratio of 70% or more and less than 90%) | 4 (Herbicidal ratio of 70% or more and less than 90%) | 4 (Herbicidal ratio of 70% or more and less than 90%) | 5 (Herbicidal ratio of 90% or more (almost completely withered)) | 0 (Herbicidal ratio of 5% or less (almost no effect)) | 0 (Herbicidal ratio of 5% or less (almost no effect)) | 4 (Herbicidal ratio of 70% or more and less than 90%) | herbicidal effect, O (Chenopodium album) (Chenopodium album; application to foliage): 5 (Herbicidal ratio of 90% or more (almost completely withered))
